According to patent publication US11723987B2, “Double suicide gene vector systems for stem cells” (UNIVERSITY OF MIAMI, priority 2016, dated 2023):
“Also recorded” adds a separate entry of the source.

B1: T41L/N71S: double mutant of E. coli nitroreductase (NTR, nfsB) with enhanced kinetics of CB1954 activation (protein, UniProt P38489 1-217, looked up, variant T41L N71S)
Oxygen-insensitive NAD(P)H …: MDIISVALKRHSTKAFDASKKLTPEQAEQIKTLLQYSPSSLNSQPWHFIVASTEEGKARVAKSAAGNYVFSERKMLDASHVVVFCAKTAMDDVWLKLVVDQEDADGRFATPEAKAANDKGRKFFADMHRKDLHDDAEWMAKQVYLNVGNFLLGVAALGLDAVPIEGFDAAILDAEFGLKEKGYTSLVVVPVGHHSVEDFNATLPKSRLPQNITLTEV

What was measured:
teratomas from λH1 cells = assay: Teratoma formation/elimination in immunodeficient mice xenotransplanted with undifferentiated λH1 cells; type: in vivo, NOD-SCID mice
Experimental: In order to test whether our suicide gene strategy works as intended in vivo, 5×10^6 undifferentiated λH1 cells were transplanted subcutaneously in the left posterior dorsal flank of 5-6-week-old immunodeficient NOD-SCID mice. These conditions are known to result in the formation of teratomas within 6-9 weeks. Groups were assigned as follows: • 1. Control (no treatment): 3 mice • 2. Peri-transplantation treatment with GCV (40 mg/kg of body weight; 5 days, starting the 7th day after transplantation): 4 mice • 3. Peri-transplantation treatment with CB1954 (20 mg/kg of body weight; 5 days, starting the 7th day after transplantation): 4 mice
As described in the literature, tumors could be manually palpated and measured using calipers in the control group starting at week 6-7. At week 10, one of the mice was euthanized for histopathological characterization of the teratoma. Starting on week 11, we treated the remaining two mice with a combination of GCV and CB1954 to test the hypothesis that pro-drug administration would eliminate already formed tumors.
Two mice in this group were euthanized at this point, showing no evidence of tumors (data not shown). […] This could be due to either the carry-over of residual hESc escapees that survived the initial GCV regimen, or to the development of GCV-resistant mutations in HSV-TK, as described in the literature. To test these two hypotheses, we re-treated these animals with ganciclovir in a 5-day drug/2-day rest regimen for the following two weeks. If the reason for the appearance of these late-onset tumors was resistance to the drug, we should continue to observe tumor growth despite the treatment; in contrast, if they were derived from surviving escapees, we might see tumor recession.
All animal experiments were conducted under the supervision of the University of Miami Institutional Animal Care and Use Committee (IACUC). NOD-SCID mice (5-6 weeks old; Jackson Laboratories, Bar Harbour, Me.) were housed in […] pathogen-free (SPF) conditions at the Division of Veterinary Resources (DVR). 5×10^6 hESc were resuspended in 50 μl mTeSR supplemented with […] of the ROCK inhibitor Y-27632A, and subsequently mixed with undiluted Matrigel of equal volume. The cell suspension was injected into the subcutis of the left posterior dorsal flank of the animal. Tumor growth was monitored with a caliper. Mice were euthanized after the observation/re-treatment period, as described in the Results section. Euthanized animals were subject to general observation. The injection site was inspected and tumor tissue, if present, was collected and processed for histopathological analysis. Lungs, liver spleen and pancreas were also harvested for histological analysis of potential tumor invasion.

λH1 cells (H1.1 cells) = assay: MTT kill curve / pro-drug exposure of undifferentiated suicide-gene modified hESc; type: cell-based, human; conditions: for exposure time after which most λH1 cells die: 10 μM CB1954, 100 μM GCV (FIG. 8c); for ablation of H1.1 cells: after 7 days of exposure (FIG. 2); for sensitivity of undifferentiated modified clones to pro-drug: undifferentiated state
Source text: Clones of the hESc line H1 containing both constructs were selected using Puro (for plasmid L) and Neo (for plasmid F). We used electroporation of the linearized plasmids followed by Puro+Neo selection to achieve stable integration of both cassettes (λH1). Integration was confirmed by PCR, and positive clones were expanded and stocked in liquid N2. ˜25 double resistant clones were handpicked, expanded under antibiotic selection and frozen in liquid N2. A typical undifferentiated colony of one such clone, propagated in Puro+Neo to maintain selective pressure, was imaged. […] Aliquots were screened by genomic PCR to confirm the integration of both constructs (data not shown). qRT-PCR was performed to determine which clones had higher transgene (HSV-TK and NTR) expression. Clone A (H1.1 from now on) was selected for further testing based on the results of these assays. A kill curve using different dosages for GCV (0.01 to 1000 μM) and CB1954 (0.1 to 300 μM) was done for H1.1. Cell death was quantified by MTT assays on H1.1 and the parental wild-type H1 line. These assays helped us determine the optimal concentration of each pro-drug that leads to complete ablation of undifferentiated H1.1 cells while preserving the viability of the parental line within 7 days. Such concentration was in the range of 10-100 μM for GCV and 50-100 μM for CB1954, as previously reported in the literature for other cell types^26,54,55. The integration of these constructs had no detectable effects in terms of pluripotency marker expression (TRA-1-60, SSEA3, SSEA4, Oct3/4, Nanog) vs. the unmodified parental line H1, as determined by qRT-PCR, immunofluorescence and FACS analyses (data not shown).
A kill curve using different dosages for GCV (0.01 to 1000 μM) and CB1954 (0.1 to 300 μM) was done for λH1 and the parental H1 lines. Cell death was quantified by MTT [3-(4,5-dimethylthiazol-2-yl)-2,5-diphenyltetrazolium bromide] assays, which helped us determine the optimal concentration of each pro-drug that leads to ablation of undifferentiated λH1 cells while preserving the viability of the parental line within 7 days. Such concentration was in the range of 10-100 μM for both GCV and CB1954 (FIG. 8a), as previously reported in the literature for other cell types (21, 22). We used 10 μM for CB1954 and 100 μM of GCV for all subsequent experiments.
hESc (H1, National Stem Cell Registry #WA01, passage 35-45) were cultured as described in Schuldiner et al., PNAS USA 97: 11307-11312 (2000) using mTeSR™ (STEMCELL Technologies, Vancouver, Canada). […] MTT (3-(4,5-dimethylthiazol-2-yl)-2,5-Diphenyltetrazolium Bromide) is a reagent which is converted from a soluble tetrazolium to its insoluble formazan form via the activity of mitochondrial NAD(P)H-dependent oxidoreductase activity. This can be used to evaluate growth and proliferation of hESC colonies. MTT growth assays were performed for the sensitivity of transfected colonies to neomycin, puromycin, GCV and CB1954 at varying concentrations as previously described.

parental H1 hESc line = assay: MTT kill curve / pro-drug exposure of parental unmodified hESc; type: cell-based, human; conditions: up to 7 days of exposure
Source text: Clones of the hESc line H1 containing both constructs were selected using Puro (for plasmid L) and Neo (for plasmid F). We used electroporation of the linearized plasmids followed by Puro+Neo selection to achieve stable integration of both cassettes (λH1). Integration was confirmed by PCR, and positive clones were expanded and stocked in liquid N2. ˜25 double resistant clones were handpicked, expanded under antibiotic selection and frozen in liquid N2. A typical undifferentiated colony of one such clone, propagated in Puro+Neo to maintain selective pressure, was imaged. […] Cell death was quantified by MTT assays on H1.1 and the parental wild-type H1 line. […] The integration of these constructs had no detectable effects in terms of pluripotency marker expression (TRA-1-60, SSEA3, SSEA4, Oct3/4, Nanog) vs. the unmodified parental line H1, as determined by qRT-PCR, immunofluorescence and FACS analyses (data not shown).
A kill curve using different dosages for GCV (0.01 to 1000 μM) and CB1954 (0.1 to 300 μM) was done for λH1 and the parental H1 lines. Cell death was quantified by MTT [3-(4,5-dimethylthiazol-2-yl)-2,5-diphenyltetrazolium bromide] assays, which helped us determine the optimal concentration of each pro-drug that leads to ablation of undifferentiated λH1 cells while preserving the viability of the parental line within 7 days. […]

tumor cell lines = conditions: Prof. Searle, personal communication; cited from earlier work

| Molecule | tumor formation after peri-transplantation treatment with CB1954 (teratomas from λH1 cells; 20 mg/kg, 5 days, starting the 7th day after transplantation, 11 weeks into the follow-up) | exposure time after which most λH1 cells die (λH1 cells (H1.1 cells)) | ablation of H1.1 cells (λH1 cells (H1.1 cells)) | sensitivity of undifferentiated modified clones to pro-drug (λH1 cells (H1.1 cells)) | sensitivity of parental H1 line to pro-drug (parental H1 hESc line) | tumor detection after peri-transplantation treatment with GCV (teratomas from λH1 cells; 40 mg/kg, 5 days, starting the 7th day after transplantation, up to week 10) | tumors after GCV re-treatment (teratomas from λH1 cells; 5-day drug/2-day rest regimen, 2-week course, one tumor >250 mm^3 at initiation (FIG. 11b)) | late-onset tumors in GCV-pretreated mice (teratomas from λH1 cells; two remaining mice, additional week after week 10) | optimal concentration of pro-drug that leads to ablation of undifferentiated modified cells while preserving the viability of the parental line (λH1 cells (H1.1 cells); within 7 days, MTT assay, kill curve GCV 0.01 to 1000 μM, CB1954 0.1 to 300 μM) | fold lower CB1954 concentration to which cells are sensitized vs the native enzyme (tumor cell lines) |
| --- | --- | --- | --- | --- | --- | --- | --- | --- | --- | --- |
| NC(=O)c1cc(N2CC2)c([N+](=O)[O-])cc1[N+](=O)[O-] [CB1954, 5-(aziridin-1-yl)-2,4-dinitrobenzamide] | none of the animals in the third group (treated in the peri-transplantation period with CB1954) showed signs of tumor formation | 3 days | 100% | sensitive | largely insensitive; also recorded: resistant; also recorded: remain largely unscathed | – | – | – | – | – |
| Nc1nc(O)c2ncn(COC(CO)CO)c2n1 [GCV, ganciclovir] | – | 7 days | 100% | sensitive | largely insensitive; also recorded: resistant; also recorded: remain largely unscathed | No tumors could be detected | both tumors virtually disappeared | the tumors grew significantly in both mice | 10 to 100 µM | – |
| B1 | – | – | – | – | – | – | – | – | – | ~15 fold |
